Measurements taken from patent publication US11512069B2, “TLR7/8 antagonists and uses thereof” (Merck Patent GmbH, priority 2016, dated 2022).

These compounds were tested against T1, TLR7 (Homo sapiens, UniProt Q9NYK1) (assay: HEK Cell Assay (TLR7/NFKb HEK reporter cells, Steady-Glo)). Settings: compound 30 min, then R*48 agonist 5 hours, Steady-Glo readout, read-out: Potency.
T1 construct: expressed in transfected cells; host or cells: HEK cells carrying TLR7 and an NF-kB reporter read with Steady-Glo
T1 sequence (Q9NYK1 27-1049): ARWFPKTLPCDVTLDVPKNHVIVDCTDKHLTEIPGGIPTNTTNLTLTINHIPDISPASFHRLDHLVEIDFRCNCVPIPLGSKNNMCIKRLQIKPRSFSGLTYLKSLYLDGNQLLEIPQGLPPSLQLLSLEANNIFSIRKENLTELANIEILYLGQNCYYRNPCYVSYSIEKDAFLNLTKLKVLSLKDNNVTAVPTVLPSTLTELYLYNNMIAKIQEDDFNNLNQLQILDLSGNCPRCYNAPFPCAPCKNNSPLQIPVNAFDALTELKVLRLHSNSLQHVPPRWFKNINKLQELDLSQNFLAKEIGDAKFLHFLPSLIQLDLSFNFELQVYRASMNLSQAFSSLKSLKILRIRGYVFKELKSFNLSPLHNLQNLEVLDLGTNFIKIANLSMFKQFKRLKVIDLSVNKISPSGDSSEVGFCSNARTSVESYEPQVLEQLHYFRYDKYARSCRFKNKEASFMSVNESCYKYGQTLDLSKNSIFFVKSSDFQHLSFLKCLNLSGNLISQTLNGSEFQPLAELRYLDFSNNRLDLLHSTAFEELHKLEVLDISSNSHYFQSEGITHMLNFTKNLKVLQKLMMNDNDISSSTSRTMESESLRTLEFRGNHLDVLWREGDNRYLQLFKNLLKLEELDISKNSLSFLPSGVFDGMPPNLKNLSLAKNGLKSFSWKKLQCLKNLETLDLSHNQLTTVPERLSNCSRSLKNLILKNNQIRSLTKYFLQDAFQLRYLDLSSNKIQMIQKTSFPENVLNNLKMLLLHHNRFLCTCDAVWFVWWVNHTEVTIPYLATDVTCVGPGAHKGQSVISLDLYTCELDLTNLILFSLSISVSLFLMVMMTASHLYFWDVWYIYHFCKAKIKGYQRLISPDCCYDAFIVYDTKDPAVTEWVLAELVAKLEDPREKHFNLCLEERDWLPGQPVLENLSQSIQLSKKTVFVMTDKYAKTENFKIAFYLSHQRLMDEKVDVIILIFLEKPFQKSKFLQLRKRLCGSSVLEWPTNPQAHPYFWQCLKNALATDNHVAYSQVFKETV
Type: cell-based
Protocol: Example 32: HEK Cell Assay
Into 384 CulturePlates (Corning 3707) was placed 5000 c/w of TLR7/NFKb HEK cells in 30 uL DMEM without Phenil red (gibco #31053) and 10% i.a. FCS and 2 mM L-ZGLutamin. The cells were incubated for 24 h at 37 degrees Celsius, 10% carbon dioxide and 90% relative humidity, 3 uL of controls, standards, and compounds were dispensed to wells, incubated for 30 min then 3 uL of R*48 agonist in 20 mM Hepes was added. After incubation for 5 hours, it was allowed to stand at room temperature for 15 min, 10 uL of Steady-Glo substrate reagent was added and shake assay plate for 5 min at 1500 rpm. The assay plate was allowed to sit for 30 min at room temperature and then read plate on EnVision.

IC50	Structure (SMILES)
1 to 20 µM	C[C@H]1C[C@@H](NC(=O)CC2CC2(F)F)C[C@@H](c2ccc(C#N)c3nccnc23)C1 (mixture of isomers) [Compound 156, N-[(cis-1,3,5)-3-(8-cyanoquinoxalin-5-yl)-5-methylcyclohexyl]-2-(2,2-difluorocyclopropyl)acetamide]
< 1 µM	C[C@H]1C[C@@H](NC(=O)CC(C)(C)C)C[C@@H](c2ccc(C#N)c3nccnc23)C1 (racemic) [Compound 129, N-[(cis-1,3,5)-3-(8-cyanoquinoxalin-5-yl)-5-methylcyclohexyl]-3,3-dimethylbutanamide]
1 to 20 µM	C[C@H]1C[C@@H](NC(=O)CC(C)(C)C)C[C@H](c2ccc(C#N)c3nccnc23)C1 (racemic) [Compound 130, N-[(1,cis-3,trans-5,cis)-3-(8-cyanoquinoxalin-5-yl)-5-methylcyclohexyl]-3,3-dimethylbutanamide]
< 1 µM	C[C@H]1C[C@@H](NC(=O)CN(C)C)C[C@@H](c2ccc(C#N)c3nccnc23)C1 (racemic) [Compound 131, N-[(cis-1,3,5)-3-(8-cyanoquinoxalin-5-yl)-5-methylcyclohexyl]-2-(dimethylamino)acetamide]
1 to 20 µM	C[C@H]1C[C@@H](NC(=O)CN(C)C)C[C@H](c2ccc(C#N)c3nccnc23)C1 (racemic) [Compound 132, N-[(1,cis-3,trans-5,cis)-3-(8-cyanoquinoxalin-5-yl)-5-methylcyclohexyl]-2-(dimethylamino)acetamide]
1 to 20 µM	C[C@H]1C[C@@H](NC(=O)[C@@H](N)C(F)(F)F)C[C@@H](c2ccc(C#N)c3nccnc23)C1 (racemic) [Compound 143, (2R)-2-amino-N-((cis-1,3,5)-3-(8-cyanoquinoxalin-5-yl)-5-methylcyclohexyl)-3,3,3-trifluoropropanamide]
1 to 20 µM	C[C@H]1C[C@@H](NC(=O)[C@H](N)C(F)(F)F)C[C@@H](c2ccc(C#N)c3nccnc23)C1 (racemic) [Compound 144, (2S)-2-amino-N-((cis-1,3,5)-3-(8-cyanoquinoxalin-5-yl)-5-methylcyclohexyl)-3,3,3-trifluoropropanamide]
1 to 20 µM	C[C@H]1C[C@@H](NC(=O)[C@H](N)C(F)(F)F)C[C@H](c2ccc(C#N)c3nccnc23)C1 (racemic) [Compound 145, (2R)-2-amino-N-((1,cis-3cis-5,trans)-3-(8-cyanoquinoxalin-5-yl)-5-methylcyclohexyl)-3,3,3-trifluoropropanamide]
1 to 20 µM	C[C@H]1C[C@@H](NC(=O)[C@@H](N)C(F)(F)F)C[C@H](c2ccc(C#N)c3nccnc23)C1 (racemic) [Compound 146, (2S)-2-amino-N-((1,cis-3cis-5,trans)-3-(8-cyanoquinoxalin-5-yl)-5-methylcyclohexyl)-3,3,3-trifluoropropanamide]
1 to 20 µM	COCCN[C@@H]1C[C@H](C)C[C@@H](c2ccc(C(F)(F)F)c3ncccc23)C1 (racemic) [Compound 151, (1,trans-3,trans-5,cis)-N-(2-methoxyethyl)-3-methyl-5-(8-(trifluoromethyl)quinolin-5-yl)cyclohexanamine]
< 1 µM	C[C@H]1C[C@@H](NC(=O)CN2CCCCC2)C[C@@H](c2ccc(C#N)c3nccnc23)C1 (racemic) [Compound 157, N-[(cis-1,3,5)-3-(8-cyanoquinoxalin-5-yl)-5-methylcyclohexyl]-2-(piperidin-1-yl)acetamide]
< 1 µM	C[C@H]1C[C@@H](NC(=O)CN2CCN(C)CC2)C[C@@H](c2ccc(C#N)c3nccnc23)C1 (racemic) [Compound 158, N-[(cis-1,3,5)-3-(8-cyanoquinoxalin-5-yl)-5-methylcyclohexyl]-2-(4-methylpiperazin-1-yl)acetamide]
1 to 20 µM	COCCN[C@@H]1C[C@H](C)C[C@H](c2ccc(F)c3nccnc23)C1 (racemic) [Compound 159, (cis-1,3,5)-3-(8-fluoroquinoxaline-5-yl)-N-(2-methoxyethyl)-5-methylcyclohexan-1-amine]

Second part, the compound before the results:

Structure (SMILES)	IC50
C[C@@H]1C[C@H](c2ccc(C(F)(F)F)c3ncccc23)CN(C(=O)CC2CCN(C)CC2)C1 (racemic) [Compound 4, cis-2-(1-Methyl-piperidin-4-yl)-1-[3-methyl-5-(8-trifluoromethyl-quinolin-5-yl)-piperidin-1-yl]-ethanone]	< 1 µM
CC(C)N1CCC(CC(=O)N2C[C@H](C)C[C@H](c3ccc(C#N)c4ncccc34)C2)CC1 (racemic) [Compound 19]	< 1 µM
C[C@@H]1C[C@H](c2ccc(C#N)c3ncccc23)CN(C(=O)CN2CC3CCC2CN3)C1 (mixture of isomers) [Compound 116, 5-[(3R,5R)-1-(2-2,5-Diaza-bicyclo[2.2.2]oct-2-yl-acetyl)-5-methyl-piperidin-3-yl]-quinoline-8-carbonitrile]	< 1 µM
C[C@H]1C[C@@H](N)C[C@@H](c2ccc(C#N)c3nccnc23)C1 (racemic) [Compound 120, 8-((S,3R,5R)-3-amino-5-methylcyclohexyl) quinoxaline-5-carbonitrile]	< 1 µM
C[C@@H]1C[C@H](c2ccc(C(F)(F)F)c3ncccc23)CN(C)C1 (relative stereo) [Compound 5]	> 20 µM
C[C@@H]1C[C@@H](c2ccc(C(F)(F)F)c3ncccc23)CN(C)C1 (relative stereo) [Compound 6]	> 20 µM
C[C@@H]1C[C@H](c2ccc(C(F)(F)F)c3ncccc23)CN(CCO)C1 (relative stereo) [Compound 7]	> 20 µM
C[C@@H]1C[C@@H](c2ccc(C(F)(F)F)c3ncccc23)CN(CCO)C1 (relative stereo) [Compound 8]	> 20 µM
CC(=O)N1C[C@@H](C)C[C@H](c2ccc(C(F)(F)F)c3ncccc23)C1 (relative stereo) [Compound 9, trans-1-[3-Methyl-5-(8-trifluoromethyl-quinolin-5-yl)-piperidin-1-yl]-ethanone]	> 20 µM
CC(=O)N1C[C@H](C)C[C@H](c2ccc(C(F)(F)F)c3ncccc23)C1 (relative stereo) [Compound 10, cis-1-[3-Methyl-5-(8-trifluoromethyl-quinolin-5-yl)-piperidin-1-yl]-ethanone]	> 20 µM
C[C@@H]1C[C@@H](c2ccc(C(F)(F)F)c3ncccc23)CN(C(=O)CCn2cccn2)C1 (relative stereo) [Compound 13]	> 20 µM
C[C@@H]1C[C@H](c2ccc(C(F)(F)F)c3ncccc23)CN(C(=O)Cn2cccn2)C1 (relative stereo) [Compound 14]	> 20 µM
C[C@@H]1C[C@@H](c2ccc(C(F)(F)F)c3ncccc23)CN(C(=O)Cn2cccn2)C1 (relative stereo) [Compound 15]	> 20 µM
C[C@@H]1C[C@H](c2ccc(C(F)(F)F)c3ncccc23)CN(C(=O)CN2CCOCC2)C1 (relative stereo) [Compound 16]	> 20 µM
C[C@@H]1C[C@H](c2ccc(C#N)c3ncccc23)CN(C(=O)Cc2cccnc2)C1 (relative stereo) [Compound 20]	> 20 µM
C[C@@H]1C[C@H](c2ccc(C#N)c3ncccc23)CN(C(=O)CCc2cccnc2)C1 (relative stereo) [Compound 24]	> 20 µM
C[C@@H]1C[C@H](c2ccc(C#N)c3ncccc23)CN(C(=O)CC(F)(F)F)C1 (relative stereo) [Compound 26]	> 20 µM
C[C@@H]1C[C@H](c2ccc(C#N)c3ncccc23)CN(C(=O)CC2CC2)C1 (relative stereo) [Compound 28, Cis 5-[1-(2-Cyclopropyl-acetyl)-5-methyl-piperidin-3-yl]-quinoline-8-carbonitrile]	1 to 20 µM
C[C@@H]1C[C@H](c2ccc(C#N)c3ncccc23)CN(C(=O)CN2CCN(C)CC2)C1 (relative stereo) [Compound 29]	< 1 µM
C[C@@H]1C[C@@H](c2ccc(C#N)c3ncccc23)CN(C(=O)CN2CCN(C)CC2)C1 (relative stereo) [Compound 30]	< 1 µM
C[C@@H]1C[C@H](c2ccc(C#N)c3ncccc23)CN(C(=O)C2CN(C)C2)C1 (relative stereo) [Compound 31]	1 to 20 µM
C[C@@H]1C[C@@H](c2ccc(C#N)c3ncccc23)CN(C(=O)C2CN(C)C2)C1 (relative stereo) [Compound 32]	1 to 20 µM
